# According to paper PMC10451377, “Rationally Designed Pyrimidine Compounds: Promising Novel Antibiotics for the Treatment of Staphylococcus aureus-Associated Bovine Mastitis” (Antibiotics, 2023):
# What was measured:
# [1] = tested on: Bacillus subtilis xpt-lacZ; assay: Broth microdilution MIC; assay type: cell-based; conditions: B. subtilis xpt-lacZ, read-out: Broth Microdilution MIC
# Bovine S. aureus = assay: Susceptibility of isolate panel (MIC50, MIC90, range); assay type: cell-based, Staphylococcus aureus; conditions: Bovine S. aureus, 48 isolates
# Excerpt: (§1) Reference strains for this study (S. aureus ATCC 29213, ATCC 29740 [bovine mastitis strain Newbould], S. epidermidis ATCC 12228, E. coli ATCC 35695, E. faecalis ATCC 29212) were obtained from the American Type Culture Collection (ATCC, Rockville, MD). S. aureus strains CMRSA-10 and CMRSA-2 were obtained from the Laboratoire de santé publique du Québec (LSPQ, Sainte-Anne-de-Bellevue, QC, Canada) and are Canadian CA-MRSA USA-300 and HA-MRSA USA-100 clones, respectively. The strain E. coli imp4213 (lptD), used as a control in MIC assays, is a derivative of E. coli ATCC 35695 (E. coli MC4100) with an increased membrane permeability. […] Other MRSA strains used in this study are clinical isolates of human origin obtained from the microbiology laboratory of the Centre Hospitalier Universitaire de Sherbrooke (CHUS, Sherbrooke, QC, Canada). Bovine mastitis strains (S. aureus, S. chromogenes, S. haemolyticus, S. hominis, S. simulans) were obtained from the Canadian Bovine Mastitis and Milk Quality Research Network (CBRQMN, St-Hyacinthe, QC, Canada). Among these strains, S. aureus 2117 is a high producer of biofilm and was used in the biofilm-eradication assay. S. epidermidis isolates were provided by Centre de Recherche en Infectiologie (CRI) de Québec (Québec, QC, Canada).
# (§2) The antibacterial activity of the most promising compound, PC206, was also evaluated against larger groups of clinical isolates of human and animal origin. The MIC50 and MIC90 values represented the concentrations of drug required to inhibit the growth of 50% and 90% of the bacterial strains tested, respectively.
# MRSA = assay: as above; assay type: cell-based, Staphylococcus aureus; conditions: 42 isolates
# Excerpt: as §1, §2
# S. chromogenes = assay: as above; assay type: cell-based
# Excerpt: as §1, §2
# S. epidermidis = assay: as above; assay type: cell-based; conditions: S. epidermidis, 10 isolates
# Excerpt: as §1, §2
# S. hominis = assay: as above; assay type: cell-based; conditions: S. hominis, 10 isolates
# Excerpt: as §1, §2
# S. simulans = assay: as above; assay type: cell-based
# Excerpt: as §1, §2
# [2] = tested on: S. aureus Newbould, S. aureus CMRSA-10, S. epidermidis ATCC 12228; assay: Kill kinetics; assay type: cell-based, staphylococci
# Method: Time-kill kinetics studies were performed to define the bactericidal effect of PC206. S. aureus Newbould, CMRSA-10, or S. epidermidis ATCC 12228 were inoculated at a density of approximately 5 × 10^5 CFU/mL in CAMHB in the absence or presence of PC206 and were incubated with agitation (225 rpm) for 24 h at 35 °C. Right before inoculation and 0.5, 1, 2, 4, 8 and 24 h thereafter, bacterial cultures were sampled, serially diluted, and plated on tryptic soya agar (TSA) plates that were incubated at 35 °C for 24 h to determine viable counts with a detection limit of 2 log10 CFU/mL.
# MTT assay [3] = assay type: cell-based; conditions: human, HepG2 cells
# MTT assay [4] = assay type: cell-based; conditions: bovine, MAC-T cells
# LDH release assay = assay type: cell-based; conditions: human, HepG2 cells
# Metabolic stability = assay type: in vitro ADME; conditions: mouse, CD-1 female mice liver S9 fraction, 60 min, mono-exponential decay model, read-out: Half-life (T1/2)
# Method: All incubations were performed minimally in triplicate. A total of 1 mL of mice liver S9 fraction (XenoTech, Kansas City, KS, USA) was fortified with 50 μL of NADPH-regenerating solution A and 10 μL of solution B (Corning BD Biosciences catalog no. 451200) and preincubated at 37 °C for 5 min prior to the addition of PC206. Immediately after fortification of PC206 into the mice liver S9 fraction containing the NADPH-regeneration system, the sampling points were taken at 2, 5, 10, 15, 30, 45 and 60 min for metabolic stability experiments (i.e., the substrate concentration was 10 μM). Samples of 50 μL were taken and mixed with 250 μL of the internal standard solution (caffeine) in microcentrifuge tubes. The samples were centrifuged at 12,000× g for 10 min and 200 μL of the supernatant was transferred into an injection vial for HPLC-MS analysis. A Q Exactive Orbitrap Mass Spectrometer was interfaced with a Vanquish Flex UHPLC system (Thermo Fisher Scientific, Rochester, NY, USA). […] Targeted drug quantification was performed by MS detection using specific precursor masses based on monoisotopic masses (i.e., [M + H]^+ ions). Quantification was performed by extracting specific precursor ions using a 5 ppm mass window.
# [5] = tested on: all reference staphylococci strains tested, including MRSA; assay: Broth microdilution MIC, summary over reference staphylococci; conditions: Staphylococcus aureus, read-out: MIC ranging, against all reference staphylococci strains tested
# [6] = Staphylococcus aureus, read-out: MIC50
# [7] = Staphylococcus aureus, read-out: MIC90
structure (smiles),measurement,setting,value
CCCCCCNc1cc(N)nc(N)n1 [PC206],MIC,[1],128 µg/mL
same,MIC Range,Bovine S. aureus,0.5 to 64 µg/mL
same,MIC50,Bovine S. aureus; [6],8 µg/mL
same,MIC90,Bovine S. aureus; [7],16 µg/mL
same,MIC Range,MRSA,2 to 128 µg/mL
same,MIC50,MRSA; [6],8 µg/mL
same,MIC90,MRSA; [7],16 µg/mL
same,MIC90,S. chromogenes,128 µg/mL
same,MIC Range,"S. chromogenes; S. chromogenes, 5 isolates",16 to 128 µg/mL
same,MIC50,"S. chromogenes; S. chromogenes, 5 isolates, read-out: MIC50",32 µg/mL
same,MIC Range,S. epidermidis,2 to 16 µg/mL
same,MIC50,"S. epidermidis; Staphylococcus epidermidis, read-out: MIC50",4 µg/mL
same,MIC90,"S. epidermidis; Staphylococcus epidermidis, read-out: MIC90",8 µg/mL
same,MIC Range,S. hominis,1 to 32 µg/mL
same,MIC50,"S. hominis; Staphylococcus hominis, read-out: MIC50",8 µg/mL
same,MIC90,"S. hominis; Staphylococcus hominis, read-out: MIC90",32 µg/mL
same,MIC Range,"S. simulans; S. simulans, 5 isolates",64 to 128 µg/mL
same,MIC90,S. simulans; Staphylococcus simulans,128 µg/mL
same,MIC50,"S. simulans; Staphylococcus simulans, S. simulans, 5 isolates, read-out: MIC50",64 µg/mL
same,Reduction of bacterial viable counts at 24 h compared to the initial inoculum,[2]; 4× MIC,0.5–1.5 log10 CFU/mL
same,Qualification from kill kinetics,"[2]; up to 4× MIC, 24 h",bacteriostatic agent
same,CC50 at 24 h,MTT assay [3],160 ± 31 µM
same,CC50 at 24 h,MTT assay [4]; 24 h,317 ± 43 µM
same,CC50 at 24 h,MTT assay [4]; converted from μM,66 µg/mL
same,CC50 at 24 h,LDH release assay,149 ± 24 µM
same,half-life at 10 µM,Metabolic stability,1.39 h
same,MIC,[5],4 to 8 µg/mL
